According to patent US20230293539A1, “MLL1-WDR5 PROTEIN-PROTEIN INTERACTION INHIBITOR COMPOUNDS AND USES THEREOF” (HUYABIO International, LLC, priority 2022, published 2023):

Experiments:
[1] = PK profile of HBI-2375 in plasma and brain in C57BL/6J mice; type: in vivo; conditions: for AUClast Ratio, group 3 vs 2 / Cmax Ratio, group 3 vs 2: repeat PO vs PO 80 mg/kg; for Cmax at 7 day / Tmax at 7 day / Cmax / MRT last / Tmax: mouse, C57BL/6J mice; for Cmax at 7 day / Tmax at 7 day: 7-day repeat PO 80 mg/kg
Protocol: EXAMPLE 4: PK profile of compound of Formula (IIIb) (HBI-2375, HYBI-84) in plasma and brain in C57BL/6J mice: This study was conducted in accordance with the Study Protocol and Pharmaron (Ningbo) TSP's Standard Operating Procedures (SOPs) following all regulatory protocols. This study was conducted under non-GLP environment.
Following single oral gavage administration of HBI-2375 at 40 mg/kg, 80 mg/kg, and 7-day repeat oral gavage administration at 80 mg/kg in C57BL/6J mice, concentrations of HBI-2375 in plasma and brain were determined by LC-MS/MS methods. […] The maximal concentrations of HBI-2375 in brain were all observed at 4 hr post-dose. […] The exposure of HBI-2375 in plasma and brain of females were closed to that of males, the ratios were 0.989-1.22 for plasma, and 1.10-1.34 for brain.

[2] = target: LSD1 (Homo sapiens, UniProt O60341); experiment: Selectivity panel (Table 3); type: biochemical
[3] = mice, repeat PO 80 mg/kg, brain
[4] = mice, repeat PO 80 mg/kg, plasma
[5] = mice, single PO 40 mg/kg, brain
[6] = mice, single PO 40 mg/kg, plasma
[7] = mice, single PO 80 mg/kg, brain
[8] = mice, single PO 80 mg/kg, plasma
[9] = single PO 40 mg/kg, brain, female
[10] = single PO 40 mg/kg, brain, male
[11] = single PO 40 mg/kg, plasma, female
[12] = single PO 40 mg/kg, plasma, male
[13] = single PO 80 mg/kg, brain, female
[14] = single PO 80 mg/kg, brain, male
[15] = single PO 80 mg/kg, plasma, female
[16] = single PO 80 mg/kg, plasma, male

## Cc1c(F)c(N)cc(C(=O)Nc2cc(-n3cc(C(=O)N4CCN(C)CC4)nn3)c(F)cc2N2C[C@@H](C)N(C)[C@@H](C)C2)c1Cl [HYBI-084, 5-amino-2-chloro-4-fluoro-N-(4-fluoro-5-(4-(4-methylpiperazine-1-carbonyl)-1H-1,2,3-triazol-1-yl)-2-((3S,5R)-3,4,5-trimethylpiperazin-1-yl)phenyl)-3-methylbenzamide]
[1]; mice, plasma, both sexes
  AUClast ratios 7-day repeat vs single-dose 80 mg/kg: 1.04-1.23
  AUClast ratios 80 vs 40 mg/kg single dose: 2.32-2.41
[1]; [3]
  AUClast Ratio Female/Male: 1.34
  Cmax Ratio Female/Male: 1.24
[1]; mice, repeat PO 80 mg/kg, brain, female
  C24hr/Cmax Ratio (%): 18.9%
[1]; mice, repeat PO 80 mg/kg, brain, male
  C24hr/Cmax Ratio (%): 14.4%
[1]; [4]
  AUClast Ratio Female/Male: 1.22
  Cmax Ratio Female/Male: 1.27
[1]; mice, repeat PO 80 mg/kg, plasma, female
  C24hr/Cmax Ratio (%): 3.94%
[1]; mice, repeat PO 80 mg/kg, plasma, male
  C24hr/Cmax Ratio (%): 2.68%
[1]; mice, brain, female
  AUClast Ratio, group 3 vs 2: 1.87
  Cmax Ratio, group 3 vs 2: 1.60
[1]; mice, brain, male
  AUClast Ratio, group 3 vs 2: 1.54
  Cmax Ratio, group 3 vs 2: 1.44
[1]; mice, plasma, female
  AUClast Ratio, group 3 vs 2: 1.23
  Cmax Ratio, group 3 vs 2: 0.726
[1]; mice, plasma, male
  AUClast Ratio, group 3 vs 2: 1.04
  Cmax Ratio, group 3 vs 2: 0.552
[1]; [5]
  AUClast Ratio Female/Male: 1.16
  Cmax Ratio Female/Male: 1.15
[1]; mice, single PO 40 mg/kg, brain, both sexes
  mean concentration at 24 hr post-dose as % of Cmax: 10.4-11.1%
[1]; mice, single PO 40 mg/kg, brain, female
  C24hr/Cmax Ratio (%): 11.1%
[1]; mice, single PO 40 mg/kg, brain, male
  C24hr/Cmax Ratio (%): 10.4%
[1]; [6]
  AUClast Ratio Female/Male: 0.989
  Cmax Ratio Female/Male: 0.976
[1]; mice, single PO 40 mg/kg, plasma, both sexes
  mean concentration at 24 hr post-dose as % of Cmax: 0.748-1.10%
[1]; mice, single PO 40 mg/kg, plasma, female
  C24hr/Cmax Ratio (%): 1.10%
[1]; mice, single PO 40 mg/kg, plasma, male
  C24hr/Cmax Ratio (%): 0.748%
[1]; [7]
  AUClast Ratio Female/Male: 1.10
  Cmax Ratio Female/Male: 1.11
[1]; mice, single PO 80 mg/kg, brain, both sexes
  mean concentration at 24 hr post-dose as % of Cmax: 9.71-11.2%
[1]; mice, single PO 80 mg/kg, brain, female
  C24hr/Cmax Ratio (%): 9.71%
[1]; mice, single PO 80 mg/kg, brain, male
  C24hr/Cmax Ratio (%): 11.2%
[1]; [8]
  AUClast Ratio Female/Male: 1.03
  Cmax Ratio Female/Male: 0.967
[1]; mice, single PO 80 mg/kg, plasma, both sexes
  mean concentration at 24 hr post-dose as % of Cmax: 0.671-0.757%
[1]; mice, single PO 80 mg/kg, plasma, female
  C24hr/Cmax Ratio (%): 0.671%
[1]; mice, single PO 80 mg/kg, plasma, male
  C24hr/Cmax Ratio (%): 0.757%
[1]; mice, single PO 40, 80 mg/kg and 7-day repeat PO 80 mg/kg
  in-life observations: no abnormalities were observed
[1]; mice, single PO 40 and 80 mg/kg
  dose proportionality of AUClast and Cmax in plasma and brain: proportional increase of exposure
[1]; brain, female
  Cmax at 7 day: 892 ng/g
  Tmax at 7 day: 4 h
[1]; brain, male
  Cmax at 7 day: 722 ng/g
  Tmax at 7 day: 4 h
[1]; plasma, female
  Cmax at 7 day: 2.84 µg/mL
  Tmax at 7 day: 1 h
[1]; plasma, male
  Cmax at 7 day: 2.23 µg/mL
  Tmax at 7 day: 1 h
[1]; [9]
  Cmax: 192 ng/g
  MRT last: 8.25 h
  Tmax: 4 h
[1]; [10]
  Cmax: 167 ng/g
  MRT last: 8.05 h
  Tmax: 4 h
[1]; [11]
  Cmax: 1.12 µg/mL
  MRT last: 5.3 h
  Tmax: 0.5 h
[1]; [12]
  Cmax: 1.15 µg/mL
  MRT last: 5.22 h
  Tmax: 0.5 h
[1]; [13]
  Cmax: 556 ng/g
  MRT last: 8.01 h
  Tmax: 4 h
[1]; [14]
  Cmax: 500 ng/g
  MRT last: 8.4 h
  Tmax: 4 h
[1]; [15]
  Cmax: 3.91 µg/mL
  MRT last: 4.86 h
  Tmax: 0.5 h
[1]; [16]
  Cmax: 4.04 µg/mL
  MRT last: 5.46 h
  Tmax: 0.5 h
[2]
  IC50: > 1 µM
